According to US20230365546A1, “5-SUBSTITUTED INDOLE 3-AMIDE DERIVATIVES, PREPARATION METHOD AND USE THEREOF” (ORIGIANT PHARMACEUTICAL CO., LTD, priority 2020, published 2023):

Columns and labels:
Assay in all cases: Kinase Profiler 10 μM panel
PKCδ(h) = PKCδ(h) (Homo sapiens (Human), UniProt Q05655)
Description: (§1) In vitro kinase assays were conducted using Kinase Profiler services provided by Eurofins. The experimental method was as follows: the small molecule compound to be tested (0.001-10 μM), the protein kinase to be tested were incubated with a buffer containing substrate, 10 mM magnesium acetate, and [γ-^33P-ATP], the reaction was started by adding Mg\TPmix, after incubation for a period of time at room temperature, a 3% phosphate solution was added to the buffer to stop the reaction. Subsequently, 10 μL of the reaction mixture was quantitatively pipetted onto P30 filter paper, which was washed three times with 75 mM phosphate solution and then once with methanol. The P30 filter paper was air-dried and scintillation fluid was added for scintillation counting.

GRK2(h) = GRK2(h) (Homo sapiens (Human), UniProt P25098)
Description: as §1

Lyn(h) = Lyn(h) (Homo sapiens (Human), UniProt P07948)
Description: as §1

Pim-3(h) = Pim-3(h) (Homo sapiens (Human), UniProt Q86V86)
Description: as §1

WNK2(h) = WNK2(h) (Homo sapiens (Human), UniProt Q9Y3S1)
Description: as §1

CK1γ3(h) = CK1γ3(h) (Homo sapiens (Human), UniProt Q9Y6M4)
Description: as §1

ALK1(h) = ALK1(h) (Homo sapiens (Human), UniProt P37023)
Description: as §1

CDK13/cyclinK(h) = CDK13/cyclinK(h) (Homo sapiens (Human), UniProt Q14004); format: biochemical
Description: as §1

MYLK2(h) = MYLK2(h) (Homo sapiens (Human), UniProt Q9H1R3)
Description: as §1

TSSK2(h) = TSSK2(h) (Homo sapiens (Human), UniProt Q96PF2)
Description: as §1

ZAP-70(h) = ZAP-70(h) (Homo sapiens (Human), UniProt P43403)
Description: as §1

PDGFRα(D842V)(h) = PDGFRα(D842V)(h) (Homo sapiens (Human), UniProt P16234, D842V)
Description: as §1

SAPK2a(h) = SAPK2a(h) (Homo sapiens (Human), UniProt Q16539)
Description: as §1

TAO1(h) = TAO1(h) (Homo sapiens (Human), UniProt Q7L7X3)
Description: as §1

CDK18/cyclinY(h) = CDK18/cyclinY(h) (Homo sapiens (Human), UniProt Q07002)
Description: as §1

SIK2(h) = SIK2(h) (Homo sapiens (Human), UniProt Q9H0K1)
Description: as §1

MRCKβ(h) = MRCKβ(h) (Homo sapiens (Human), UniProt Q9Y5S2)
Description: as §1

Arg(m) = Arg(m) (Mus musculus (Mouse), UniProt Q4JIM5)
Description: as §1

BTK(R28H)(h) = BTK(R28H)(h) (Homo sapiens (Human), UniProt Q06187, R28H)
Description: as §1

IR(h) = IR(h) (Homo sapiens (Human), UniProt P06213)
Description: as §1

MINK(h) = MINK(h) (Homo sapiens (Human), UniProt Q8N4C8)
Description: as §1

CDK4/cyclinD3(h) = CDK4/cyclinD3(h) (Homo sapiens (Human), UniProt P11802)
Description: as §1

JNK2α2(h) = JNK2α2(h) (Homo sapiens (Human), UniProt P45984)
Description: as §1

BIKe(h) = BIKe(h) (Homo sapiens (Human), UniProt Q9NSY1)
Description: as §1

Rsk2(h) = Rsk2(h) (Homo sapiens (Human), UniProt P51812)
Description: as §1

Met(Y1248D)(h) = Met(Y1248D)(h) (Homo sapiens (Human), UniProt P08581, Y1230D)
Description: as §1

Hck(h) = Hck(h) (Homo sapiens (Human), UniProt P08631)
Description: as §1

CK1(y) = system: CK1(y)
Description: as §1

ALK4(h) = ALK4(h) (Homo sapiens (Human), UniProt P36896)
Description: as §1

EGFR(T790M)(h) = EGFR(T790M)(h) (Homo sapiens (Human), UniProt P00533, T790M)
Description: as §1

SAPK4(h) = SAPK4(h) (Homo sapiens (Human), UniProt O15264)
Description: as §1

Ron(h) = Ron(h) (Homo sapiens (Human), UniProt Q04912)
Description: as §1

CDKL3(h) = CDKL3(h) (Homo sapiens (Human), UniProt Q8IVW4)
Description: as §1

TrkA(h) = TrkA(h) (Homo sapiens (Human), UniProt P04629)
Description: as §1

Sequence of Hck(h) (P08631 whole entry): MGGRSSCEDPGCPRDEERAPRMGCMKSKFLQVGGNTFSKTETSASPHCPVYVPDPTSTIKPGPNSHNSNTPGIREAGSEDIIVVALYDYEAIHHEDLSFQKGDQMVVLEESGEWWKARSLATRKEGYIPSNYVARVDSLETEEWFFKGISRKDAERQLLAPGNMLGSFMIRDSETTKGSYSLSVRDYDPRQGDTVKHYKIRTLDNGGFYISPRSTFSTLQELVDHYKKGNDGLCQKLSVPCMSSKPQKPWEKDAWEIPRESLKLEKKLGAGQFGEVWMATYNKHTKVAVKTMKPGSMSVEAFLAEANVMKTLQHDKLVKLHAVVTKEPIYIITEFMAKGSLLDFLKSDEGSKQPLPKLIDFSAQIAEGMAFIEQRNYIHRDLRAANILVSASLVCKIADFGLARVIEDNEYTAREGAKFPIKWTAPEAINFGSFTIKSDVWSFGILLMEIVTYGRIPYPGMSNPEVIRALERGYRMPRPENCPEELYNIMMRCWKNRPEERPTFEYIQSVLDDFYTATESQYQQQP
Sequence of SAPK4(h) (O15264 whole entry): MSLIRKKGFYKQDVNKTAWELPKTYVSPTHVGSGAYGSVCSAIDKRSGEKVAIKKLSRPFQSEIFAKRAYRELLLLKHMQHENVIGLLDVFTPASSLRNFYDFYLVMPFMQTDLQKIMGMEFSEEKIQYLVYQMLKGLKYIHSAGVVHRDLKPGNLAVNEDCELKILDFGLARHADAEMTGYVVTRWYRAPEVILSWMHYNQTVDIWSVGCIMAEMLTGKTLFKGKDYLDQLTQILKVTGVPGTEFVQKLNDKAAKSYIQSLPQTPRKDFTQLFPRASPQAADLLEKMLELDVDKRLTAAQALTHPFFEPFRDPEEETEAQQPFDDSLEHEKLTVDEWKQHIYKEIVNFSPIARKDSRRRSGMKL
Sequence of ALK1(h) (P37023 22-503): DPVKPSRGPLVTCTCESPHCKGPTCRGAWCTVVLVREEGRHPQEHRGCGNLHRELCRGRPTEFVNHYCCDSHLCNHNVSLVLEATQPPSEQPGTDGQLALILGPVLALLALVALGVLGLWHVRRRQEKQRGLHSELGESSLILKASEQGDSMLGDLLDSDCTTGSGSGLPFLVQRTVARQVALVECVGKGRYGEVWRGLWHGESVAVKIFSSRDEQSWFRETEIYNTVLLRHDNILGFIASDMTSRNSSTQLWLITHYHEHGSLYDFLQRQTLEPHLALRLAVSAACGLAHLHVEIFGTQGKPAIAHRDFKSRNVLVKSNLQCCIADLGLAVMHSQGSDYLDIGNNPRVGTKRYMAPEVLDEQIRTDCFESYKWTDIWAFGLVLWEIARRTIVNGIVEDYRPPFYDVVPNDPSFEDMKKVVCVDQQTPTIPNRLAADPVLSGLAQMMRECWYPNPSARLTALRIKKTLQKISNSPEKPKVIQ
Sequence of EGFR(T790M)(h) (P00533 25-1210 T790M): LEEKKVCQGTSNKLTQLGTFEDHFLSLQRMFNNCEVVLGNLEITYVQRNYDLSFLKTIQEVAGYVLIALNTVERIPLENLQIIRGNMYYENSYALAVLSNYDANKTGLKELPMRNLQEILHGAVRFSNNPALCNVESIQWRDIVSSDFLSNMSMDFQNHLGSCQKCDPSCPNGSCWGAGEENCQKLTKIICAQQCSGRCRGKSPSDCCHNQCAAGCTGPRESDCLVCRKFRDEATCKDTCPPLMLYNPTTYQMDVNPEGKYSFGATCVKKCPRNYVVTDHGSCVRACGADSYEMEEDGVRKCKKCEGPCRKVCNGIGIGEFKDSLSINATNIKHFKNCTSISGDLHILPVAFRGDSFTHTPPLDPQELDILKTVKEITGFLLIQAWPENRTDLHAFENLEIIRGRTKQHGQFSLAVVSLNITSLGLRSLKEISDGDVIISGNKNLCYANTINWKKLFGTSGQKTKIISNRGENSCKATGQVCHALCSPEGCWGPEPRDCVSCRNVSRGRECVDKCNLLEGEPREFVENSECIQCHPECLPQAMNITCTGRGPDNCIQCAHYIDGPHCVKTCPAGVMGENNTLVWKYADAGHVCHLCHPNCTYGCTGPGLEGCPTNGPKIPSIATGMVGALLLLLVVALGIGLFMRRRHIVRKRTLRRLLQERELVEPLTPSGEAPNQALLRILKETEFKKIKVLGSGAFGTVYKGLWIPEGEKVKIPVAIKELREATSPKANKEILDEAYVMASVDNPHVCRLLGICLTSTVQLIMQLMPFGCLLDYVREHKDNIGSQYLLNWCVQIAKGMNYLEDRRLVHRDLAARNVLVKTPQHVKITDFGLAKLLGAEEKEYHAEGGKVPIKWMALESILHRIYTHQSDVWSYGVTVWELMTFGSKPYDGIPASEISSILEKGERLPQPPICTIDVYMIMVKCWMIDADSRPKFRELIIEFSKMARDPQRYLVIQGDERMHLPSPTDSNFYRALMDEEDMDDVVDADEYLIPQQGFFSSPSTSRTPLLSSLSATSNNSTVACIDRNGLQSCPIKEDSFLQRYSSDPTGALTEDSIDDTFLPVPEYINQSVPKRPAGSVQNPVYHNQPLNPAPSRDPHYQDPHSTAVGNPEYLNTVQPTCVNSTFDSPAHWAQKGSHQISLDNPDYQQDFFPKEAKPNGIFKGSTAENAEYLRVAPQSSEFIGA
Sequence of MYLK2(h) (Q9H1R3 whole entry): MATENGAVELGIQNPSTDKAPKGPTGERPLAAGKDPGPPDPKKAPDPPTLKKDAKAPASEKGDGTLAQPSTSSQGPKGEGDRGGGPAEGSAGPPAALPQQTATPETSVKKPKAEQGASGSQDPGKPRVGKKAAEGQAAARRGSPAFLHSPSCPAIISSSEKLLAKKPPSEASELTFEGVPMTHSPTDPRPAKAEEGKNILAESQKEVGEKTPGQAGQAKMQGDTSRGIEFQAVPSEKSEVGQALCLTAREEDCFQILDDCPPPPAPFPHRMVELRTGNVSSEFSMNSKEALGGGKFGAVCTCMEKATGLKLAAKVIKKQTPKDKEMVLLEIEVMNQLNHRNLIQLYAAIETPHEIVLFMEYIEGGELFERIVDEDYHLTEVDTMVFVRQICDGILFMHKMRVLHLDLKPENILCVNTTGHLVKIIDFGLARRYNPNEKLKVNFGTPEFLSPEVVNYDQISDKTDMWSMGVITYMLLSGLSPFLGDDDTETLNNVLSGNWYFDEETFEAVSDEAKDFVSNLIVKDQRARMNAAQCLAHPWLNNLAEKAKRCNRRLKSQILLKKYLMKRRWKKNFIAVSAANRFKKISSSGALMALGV
Sequence of TSSK2(h) (Q96PF2 whole entry): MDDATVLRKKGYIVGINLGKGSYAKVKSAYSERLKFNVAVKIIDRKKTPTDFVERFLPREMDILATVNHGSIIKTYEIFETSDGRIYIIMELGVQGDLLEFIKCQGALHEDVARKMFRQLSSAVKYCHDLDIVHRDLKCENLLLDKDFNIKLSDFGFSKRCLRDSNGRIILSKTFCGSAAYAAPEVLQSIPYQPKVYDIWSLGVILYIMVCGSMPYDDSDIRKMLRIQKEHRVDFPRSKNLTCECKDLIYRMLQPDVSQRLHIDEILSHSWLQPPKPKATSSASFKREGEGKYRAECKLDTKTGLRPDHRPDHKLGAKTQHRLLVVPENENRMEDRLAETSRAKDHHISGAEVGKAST
Sequence of TAO1(h) (Q7L7X3 whole entry): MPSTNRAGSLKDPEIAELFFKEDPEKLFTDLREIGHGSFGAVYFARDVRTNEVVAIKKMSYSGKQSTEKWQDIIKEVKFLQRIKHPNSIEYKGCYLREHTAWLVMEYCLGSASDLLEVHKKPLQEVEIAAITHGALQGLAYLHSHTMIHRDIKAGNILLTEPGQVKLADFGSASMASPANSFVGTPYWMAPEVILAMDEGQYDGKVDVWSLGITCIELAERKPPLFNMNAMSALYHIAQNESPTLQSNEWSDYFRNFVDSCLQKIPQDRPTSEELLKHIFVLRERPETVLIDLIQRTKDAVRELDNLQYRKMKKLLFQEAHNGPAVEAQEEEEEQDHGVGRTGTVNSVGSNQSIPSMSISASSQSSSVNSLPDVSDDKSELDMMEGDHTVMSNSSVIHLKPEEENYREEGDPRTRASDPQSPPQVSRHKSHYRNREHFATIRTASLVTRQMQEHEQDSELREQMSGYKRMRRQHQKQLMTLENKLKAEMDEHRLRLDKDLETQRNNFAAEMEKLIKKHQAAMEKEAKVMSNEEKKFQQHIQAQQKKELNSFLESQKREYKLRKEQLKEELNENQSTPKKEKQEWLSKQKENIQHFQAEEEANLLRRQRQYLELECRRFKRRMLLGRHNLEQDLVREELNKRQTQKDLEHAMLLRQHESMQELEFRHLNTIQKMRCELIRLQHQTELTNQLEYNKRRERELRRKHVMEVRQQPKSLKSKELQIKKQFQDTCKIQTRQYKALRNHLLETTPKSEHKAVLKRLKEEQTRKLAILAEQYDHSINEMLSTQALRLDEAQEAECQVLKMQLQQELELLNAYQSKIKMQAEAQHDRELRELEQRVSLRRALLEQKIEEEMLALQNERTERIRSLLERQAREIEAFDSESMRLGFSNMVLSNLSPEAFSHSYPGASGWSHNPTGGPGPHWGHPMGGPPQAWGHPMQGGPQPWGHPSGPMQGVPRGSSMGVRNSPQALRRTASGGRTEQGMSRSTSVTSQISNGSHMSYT
Sequence of CK1γ3(h) (Q9Y6M4 whole entry): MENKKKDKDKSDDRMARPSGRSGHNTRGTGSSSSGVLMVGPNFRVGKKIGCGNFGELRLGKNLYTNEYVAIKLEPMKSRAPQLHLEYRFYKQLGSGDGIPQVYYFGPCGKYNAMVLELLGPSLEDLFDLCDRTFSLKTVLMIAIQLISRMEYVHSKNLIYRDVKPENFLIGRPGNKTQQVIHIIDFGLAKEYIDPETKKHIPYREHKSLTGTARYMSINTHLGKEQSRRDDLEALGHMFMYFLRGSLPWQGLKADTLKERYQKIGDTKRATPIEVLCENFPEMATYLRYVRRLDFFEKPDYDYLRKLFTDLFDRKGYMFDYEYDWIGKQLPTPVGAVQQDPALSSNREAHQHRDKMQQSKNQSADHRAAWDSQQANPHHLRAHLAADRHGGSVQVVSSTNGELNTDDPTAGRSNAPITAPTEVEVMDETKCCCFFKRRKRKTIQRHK

Work on `C[C@H](NC(=O)c1c[nH]c2ccc(-c3ccc4nc(NC(=O)C5CC5)sc4c3)cc12)c1cccc(F)c1` [Compound 34, (S)-5-(2-(cyclopropanecarboxamido)benzo[d]thiazol-6-yl)-N-(1-(3-fluorophenyl)ethyl)-1H-indole-3-carboxamide] yielded an Inhibition ratio (PKCδ(h)) of 7%, an Inhibition ratio (GRK2(h)) of −1% and an Inhibition ratio (Lyn(h)) of 52%. The Inhibition ratio (Pim-3(h)) was 3%, the Inhibition ratio (WNK2(h)) was 38% and the Inhibition ratio (CK1γ3(h)) was −15%. The Inhibition ratio (ALK1(h)) was 50%, the Inhibition ratio (CDK13/cyclinK(h)) was 19% and the Inhibition ratio (MYLK2(h)) was 55%. It also gave an Inhibition ratio (TSSK2(h)) of −6%, an Inhibition ratio (ZAP-70(h)) of 8% and an Inhibition ratio (PDGFRα(D842V)(h)) of 56%. For the same compound, the Inhibition ratio (SAPK2a(h)) was 29%, the Inhibition ratio (TAO1(h)) was 24% and the Inhibition ratio (CDK18/cyclinY(h)) was 7%. It also gave an Inhibition ratio (SIK2(h)) of 39%, an Inhibition ratio (MRCKβ(h)) of −5% and an Inhibition ratio (Arg(m)) of 87%. It also gave an Inhibition ratio (BTK(R28H)(h)) of 1%, an Inhibition ratio (IR(h)) of 36% and an Inhibition ratio (MINK(h)) of 93%. For the same compound, the Inhibition ratio (CDK4/cyclinD3(h)) was −5%, the Inhibition ratio (JNK2α2(h)) was 25% and the Inhibition ratio (BIKe(h)) was 8%. The Inhibition ratio (Rsk2(h)) was 1%, the Inhibition ratio (Met(Y1248D)(h)) was 99% and the Inhibition ratio (Hck(h)) was 37%. For the same compound, the Inhibition ratio (CK1(y)) was 25%, the Inhibition ratio (ALK4(h)) was 3% and the Inhibition ratio (EGFR(T790M)(h)) was 40%. It also gave an Inhibition ratio (SAPK4(h)) of 94%, an Inhibition ratio (Ron(h)) of 44% and an Inhibition ratio (CDKL3(h)) of 51%. It also gave an Inhibition ratio (TrkA(h)) of 102%.
`C[C@H](NC(=O)c1cn(C)c2ccc(-c3ccn4nc(NC(=O)C5CC5)nc4c3)cc12)c1cccc(F)c1` [Compound 94, (S)-5-(2-(cyclopropanecarboxamido)-[1,2,4]triazolo[1,5-a]pyridin-7-yl)-N-(1-(3-fluorophenyl)ethyl)-1-methyl-1H-indole-3-carboxamide] was tested, and the Inhibition ratio/% (PKCδ(h)) was 48%, the Inhibition ratio/% (GRK2(h)) was 53% and the Inhibition ratio/% (Lyn(h)) was 55%. It also gave an Inhibition ratio/% (Pim-3(h)) of 32%, an Inhibition ratio/% (WNK2(h)) of 6% and an Inhibition ratio/% (CK1γ3(h)) of −10%. It also gave an Inhibition ratio/% (ALK1(h)) of 0%, an Inhibition ratio/% (CDK13/cyclinK(h)) of 66% and an Inhibition ratio/% (MYLK2(h)) of −8%. The Inhibition ratio/% (TSSK2(h)) was 52%, the Inhibition ratio/% (ZAP-70(h)) was 1% and the Inhibition ratio/% (PDGFRα(D842V)(h)) was 37%. For the same compound, the Inhibition ratio/% (SAPK2a(h)) was 17%, the Inhibition ratio/% (TAO1(h)) was 50% and the Inhibition ratio/% (CDK18/cyclinY(h)) was 74%. The Inhibition ratio/% (SIK2(h)) was −4%, the Inhibition ratio/% (MRCKβ(h)) was −4% and the Inhibition ratio/% (Arg(m)) was 11%. For the same compound, the Inhibition ratio/% (BTK(R28H)(h)) was 77%, the Inhibition ratio/% (IR(h)) was 27% and the Inhibition ratio/% (MINK(h)) was 53%. It also gave an Inhibition ratio/% (CDK4/cyclinD3(h)) of 4%, an Inhibition ratio/% (JNK2α2(h)) of 40% and an Inhibition ratio/% (BIKe(h)) of −2%. For the same compound, the Inhibition ratio/% (Rsk2(h)) was 4%, the Inhibition ratio/% (Met(Y1248D)(h)) was 13% and the Inhibition ratio/% (Hck(h)) was −8%. For the same compound, the Inhibition ratio/% (CK1(y)) was 30%, the Inhibition ratio/% (ALK4(h)) was −18% and the Inhibition ratio/% (EGFR(T790M)(h)) was −10%. For the same compound, the Inhibition ratio/% (SAPK4(h)) was 12%, the Inhibition ratio/% (Ron(h)) was 17% and the Inhibition ratio/% (CDKL3(h)) was −5%. For the same compound, the Inhibition ratio/% (TrkA(h)) was −12%.
